Among the test systems are HCT-15 colon; LOX IMVI melanoma; HOP-18 NSCLC; UACC-62 melanoma; SNB-19 CNS; SNB-78 CNS; HL-60(TB) leukemia; ACHN renal; M14 melanoma; M19-MEL melanoma; OVCAR-5 ovarian; DLD-1 colon; T-47D breast.
What all share (assay): inhibition of tumour cell growth, NCI panel, 48 h

Each structure is given as a SMILES string.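 48-hour exposure; five concentrations; linearly interpolated endpoints. GI50 = concentration required for 50% inhibition of growth. TGI: total growth inhibition.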

Regarding `Cc1ccc(Sc2ccccc2N)cc1`, the TGI with HCT-15 colon, with LOX IMVI melanoma, with HOP-18 NSCLC, with UACC-62 melanoma, with SNB-19 CNS and with SNB-78 CNS was over 100 µM throughout. Moreover, the TGI in the test with HL-60(TB) leukemia was 49.6 µM; with ACHN renal, over 100 µM; with M14 melanoma it was over 100 µM; in the test on M19-MEL melanoma, over 100 µM; in the test on OVCAR-5 ovarian, over 100 µM.

In the case of `COc1ccc(/C=C/C(=O)c2sc(-c3cccnc3)nc2C)cc1`, the TGI in the test on HCT-15 colon, in the test on LOX IMVI melanoma, in the test on HOP-18 NSCLC, in the test on UACC-62 melanoma, in the test on SNB-78 CNS and in the test with DLD-1 colon was over 100 µM each time. For the same compound, the TGI in the test on HL-60(TB) leukemia is 48.1 µM; with M19-MEL melanoma, over 100 µM; in the test with OVCAR-5 ovarian, over 100 µM.

For the compound `Cc1ccc(C(=O)N/N=C(\N=Nc2ccccc2Cl)c2ccc(N(C)C)cc2)cc1`, the TGI is over 100 µM with HCT-15 colon; over 100 µM in the test with LOX IMVI melanoma; 17.8 µM with UACC-62 melanoma; 84.5 µM with SNB-19 CNS; 24.5 µM in the test on T-47D breast; over 100 µM in the test on HL-60(TB) leukemia. In addition, the TGI in the test on ACHN renal is 46.1 µM; with M14 melanoma it was over 100 µM; in the test with OVCAR-5 ovarian it was over 100 µM.

Take `O=C1CC2CC(CC3(CO3)C2)C1F` (stereo unspecified): the TGI in the test on HCT-15 colon, in the test with LOX IMVI melanoma, in the test on UACC-62 melanoma, in the test on SNB-19 CNS, with T-47D breast and in the test with HL-60(TB) leukemia was over 100 µM throughout. The TGI in the test on ACHN renal, with M14 melanoma and in the test with OVCAR-5 ovarian was over 100 µM each time.

`CC1=CC(=O)N(n2c(-c3ccccc3)n[nH]c2=O)C1=O`: the TGI with HCT-15 colon, with LOX IMVI melanoma, in the test on UACC-62 melanoma, in the test on SNB-19 CNS, in the test on T-47D breast and with HL-60(TB) leukemia was over 100 µM each time. Also, the TGI with ACHN renal, in the test on M14 melanoma and with OVCAR-5 ovarian was over 100 µM in each case.

For the compound `CC(C)OP(=O)(OC(C)C)C(=NCCN=C(NNc1ccccc1[N+](=O)[O-])P(=O)(OC(C)C)OC(C)C)NNc1ccccc1[N+](=O)[O-]`, the TGI with HCT-15 colon was over 100 µM; with LOX IMVI melanoma, over 100 µM; with UACC-62 melanoma, 40.6 µM; in the test with SNB-19 CNS, over 100 µM; in the test on DLD-1 colon, over 100 µM; in the test with HL-60(TB) leukemia it was 74.5 µM. Also, the TGI in the test on ACHN renal was over 100 µM; in the test with M14 melanoma, over 100 µM; in the test with M19-MEL melanoma, over 100 µM; in the test with OVCAR-5 ovarian it was 72.8 µM.

Consider `O=[N+]([O-])C(/C=C(\Cl)[N+](=O)[O-])=C(N1CCCCC1)N1CCCCC1`, for which the TGI is 68 µM with HCT-15 colon; over 100 µM with LOX IMVI melanoma; 60.8 µM in the test on UACC-62 melanoma; over 100 µM in the test on SNB-19 CNS; over 100 µM with T-47D breast; 41.7 µM in the test on HL-60(TB) leukemia. Besides, the TGI is over 100 µM with ACHN renal, 57 µM in the test on M14 melanoma and over 100 µM in the test on OVCAR-5 ovarian.

Turning to `COc1cc(CNc2c3ccccc3nc3ccccc23)cc(OC)c1OC`, the TGI is 14 µM with HCT-15 colon; 6.75 µM in the test on LOX IMVI melanoma; 7.74 µM in the test on UACC-62 melanoma; 24.3 µM with SNB-19 CNS; 41.9 µM with T-47D breast; over 21.3 µM with HL-60(TB) leukemia. In addition, the TGI in the test with ACHN renal turned out to be 14.4 µM; in the test on M14 melanoma, 8.76 µM; in the test on OVCAR-5 ovarian, 14.6 µM.

Consider `C=C1c2nc3ccccc3n2C=C(c2ccc(Cl)cc2)N1c1ccc(OCCN2CCCCC2)cc1`, for which the TGI in the test with HCT-15 colon was over 45 µM; with LOX IMVI melanoma, over 45 µM; with UACC-62 melanoma, over 100 µM; with SNB-19 CNS it was over 100 µM; in the test with T-47D breast, over 100 µM; in the test on HL-60(TB) leukemia it was 45 µM. Also, the TGI in the test on ACHN renal, in the test with M14 melanoma and in the test on OVCAR-5 ovarian was over 100 µM throughout. In addition, the GI50 in the test with UACC-62 melanoma is over 100 µM; with SNB-19 CNS it was 4.53 µM; in the test on T-47D breast, over 100 µM; in the test with ACHN renal, over 100 µM; with M14 melanoma, over 100 µM; in the test on OVCAR-5 ovarian it was over 100 µM.

Regarding `C(#CC1(Nc2ccccc2)CCN(Cc2ccccc2)CC1)C1(Nc2ccccc2)CCN(Cc2ccccc2)CC1`, the TGI is over 46.4 µM in the test on HCT-15 colon; 38.7 µM in the test with LOX IMVI melanoma; 21.4 µM with UACC-62 melanoma; 52.9 µM with SNB-19 CNS; over 100 µM in the test on T-47D breast; 11.7 µM in the test on HL-60(TB) leukemia. Besides, the TGI in the test with ACHN renal was over 56.2 µM; in the test on M14 melanoma, over 100 µM; with OVCAR-5 ovarian, over 56.2 µM.

In the case of `C=CC1(c2ccc3ccccc3c2)OCC(CC)O1` (stereo unspecified), the TGI was over 100 µM in the test on HCT-15 colon; 44.3 µM in the test with LOX IMVI melanoma; 88.3 µM with UACC-62 melanoma; over 100 µM with SNB-19 CNS; over 100 µM with T-47D breast; 23.3 µM with HL-60(TB) leukemia. Moreover, the TGI with ACHN renal, in the test with M14 melanoma and in the test with OVCAR-5 ovarian was over 100 µM each time.

As to `Nc1cc(Cl)ccc1SSc1ccc(Cl)cc1N`, the TGI was 8.8 µM in the test on HCT-15 colon; 14.2 µM in the test with LOX IMVI melanoma; 12.7 µM with UACC-62 melanoma; over 100 µM in the test with SNB-19 CNS; 45.4 µM in the test on T-47D breast; over 100 µM in the test with HL-60(TB) leukemia. In addition, the figures for the TGI in the test on ACHN renal, with M14 melanoma and in the test with OVCAR-5 ovarian were 21.3 µM, 21.7 µM and 30.3 µM, respectively.

For `CCC1CCC2c3c([nH]c4ccc(C)cc34)C3C(=O)N(N(C)C)C(=O)C3C2C1` (stereo unspecified), the TGI with HCT-15 colon is over 100 µM; in the test with LOX IMVI melanoma it was over 100 µM; with UACC-62 melanoma it was over 100 µM; with SNB-19 CNS, over 100 µM; in the test with T-47D breast, 41.2 µM; in the test on HL-60(TB) leukemia it was over 46.8 µM. Further, the TGI in the test on ACHN renal, with M14 melanoma and in the test on OVCAR-5 ovarian was over 100 µM each time.

For the origin of these results see PubChem BioAssay (NCI).
